36 molecules from patent US20110306597A1, “Nicotinamide Derivatives” (priority 2008, published 2011) can be followed below.

human recombinant H-PGDS, sequence (O60760 whole entry): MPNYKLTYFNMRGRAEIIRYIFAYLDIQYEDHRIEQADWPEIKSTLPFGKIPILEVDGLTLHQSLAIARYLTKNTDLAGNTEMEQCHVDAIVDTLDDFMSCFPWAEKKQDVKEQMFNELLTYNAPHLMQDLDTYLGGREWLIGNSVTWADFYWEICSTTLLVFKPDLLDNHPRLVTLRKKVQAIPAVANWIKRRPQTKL

The target in the assay is human recombinant H-PGDS (Homo sapiens, UniProt O60760). The assay can be described thus: Fluorescence Intensity h-PGDS TBA Enzyme Assay. It counts as biochemical. Particulars: 1:175,000 human recombinant H-PGDS, highest inhibitor concentration typically 1 μM. As for the experimental part:
Fluorescence Intensity h-PGDSTBA Enzyme Assay
Prostaglandin D Synthase (PGDS) converts the substrate prostaglandin H2 (PGH2) to prostaglandin D2. The depletion of PGH2 was measured via an Fe(II) reduction of the remaining PGH2 to malondialdehyde (MDA) and 12-HHT. The enzyme assay is based on the quantitative formation of a fluorescent complex from the non-fluorescent compounds MDA and 2-thiobarbituric acid (TBA), substantially as described in U.S. patent application publication US-2004/152148 by Lombardt.
The enzyme assay (31 μls) contained 100 mM Tris base pH 8.0, 100 μM MgCl2, 0.1 mg/ml IgG Rabbit serum, 5.0 μM PGH2 (Cayman; ethanol solution, #17020), 2.5 mM L-Glutathione (Sigma; reduced form #G4251), 1:175,000 human recombinant H-PGDS (from 1 mg/ml), 0.5% DMSO and inhibitor (varying concentration). Three μls of diluted inhibitor (dissolved in DMSO) was plated into a 384-well assay plate followed by a 25 μl addition of an enzyme solution containing h-PGDS, Tris, MgCl2, IgG and L-Glutathione. After preincubation of inhibitor and enzyme solution for 10 minutes at room temperature, the reaction was initiated with a 3 μl addition of substrate solution in 10 mM HCl. The reaction was terminated after 42 second by the addition (3 μl) of stop buffer containing FeCl2 and citric acid. After addition of 45.5 μls of TBA plates were heated for one hour in a 70 C oven. Plates were cooled at room temperature overnight and read on a plate reader the next day with excitation @ 530 nm and emission @ 565 nm.
IC50's of inhibitors were calculated with a 4-parameter fit using 11 inhibitor concentrations in duplicate with 3-fold serial dilutions. Controls on each plate included no inhibitor (zero % effect) and an inhibitor 10-fold in excess of its' IC50 (100% effect). The highest inhibitor concentration tested was typically 1 μM.
For the molecule `COCc1cc(CNC(=O)c2ccc(-c3cccc(F)c3)nc2)n[nH]1` [Example 36, 6-(3-Fluorophenyl)-N-{[5-(methoxymethyl)-1H-pyrazol-3-yl]methyl}nicotinamide], the IC50 (commonly the concentration needed to halve the response being measured) was determined as 27.7 nM. For the molecule `CC(C)OCCCNC(=O)c1ccc(-c2cccc(F)c2)nc1` [Example 37, 6-(3-Fluorophenyl)-N-(3-isopropoxypropyl) nicotinamide], the 50% inhibitory concentration (IC50) amounted to 15.8 nM. Under `CCOCCCNC(=O)c1ccc(-c2cccc(F)c2)nc1` [Example 38, N-(3-Ethoxypropyl)-6-(3-fluorophenyl)nicotinamide] stands 14.8 nM; under `O=C(NCCCN1CCOCC1)c1ccc(-c2cccc(F)c2)nc1` [Example 39, 6-(3-Fluorophenyl)-N-(3-morpholin-4-ylpropyl)nicotinamide], 42.8 nM; under `O=C(NCC1CCCOC1)c1ccc(-c2cccc(F)c2)nc1` (stereo not drawn) [Example 40, 6-(3-Fluorophenyl)-N-(tetrahydro-2H-pyran-3-ylmethyl)nicotinamide], 7.14 nM. The figure for `O=C(NCCN1CCCOC1=O)c1ccc(-c2cccc(F)c2)nc1` [Example 41, 6-(3-Fluorophenyl)-N-[2-(2-oxo-1,3-oxazinan-3-yl)ethyl]nicotinamide] is 18.2 nM; for `O=C(NCCC1CCC(=O)N1CCN1CCOCC1)c1ccc(-c2cccc(F)c2)nc1` (stereo not drawn) [Example 42, 6-(3-Fluorophenyl)-N-{2-[1-(2-morpholin-4-ylethyl)-5-oxopyrrolidin-2-yl]ethyl}nicotinamide] it is 12.6 nM; for `COc1ccc(OCC(O)CNC(=O)c2ccc(-c3cccc(F)c3)nc2)cc1` (stereo not drawn) [Example 43, 6-(3-Fluorophenyl)-N-[2-hydroxy-3-(4-methoxyphenoxy)propyl] nicotinamide] it is 6.64 nM. For the molecule `COC(=O)CCCNC(=O)c1ccc(-c2cccc(F)c2)nc1` [Example 44, Methyl 4-({[6-(3-fluorophenyl)pyridin-3-yl]carbonyl}amino)butanoate], the IC50 was found to be 13.2 nM. With `CCn1cc(-c2nnc(CCNC(=O)c3ccc(-c4cccc(F)c4)nc3)o2)cn1` [Example 45, N-{2-[5-(1-Ethyl-1H-pyrazol-4-yl)-1,3,4-oxadiazol-2-yl]ethyl}-6-(3-fluorophenyl)nicotinamide], the 50% inhibitory concentration (IC50) is 30.7 nM.

Turning to `COCCN1C(=O)CCC1CCNC(=O)c1ccc(-c2cccc(F)c2)nc1` (stereo not drawn) [Example 46, 6-(3-Fluorophenyl)-N-{2-[1-(2-methoxyethyl)-5-oxopyrrolidin-2-yl]ethyl}nicotinamide], the 50% inhibitory concentration (IC50) stood at 17.3 nM. The figure for `O=C(NCCN1CCCC(O)C1)c1ccc(-c2cccc(F)c2)nc1` (stereo not drawn) [Example 47, 6-(3-Fluorophenyl)-N-[2-(3-hydroxypiperidin-1-yl)ethyl]nicotinamide] is 21.7 nM; for `COc1cccn(CCNC(=O)c2ccc(-c3cccc(F)c3)nc2)c1=O` [Example 48, 6-(3-Fluorophenyl)-N-[2-(3-methoxy-2-oxopyridin-1(2H)-yl)ethyl]nicotinamide] it is 10.7 nM; for `COc1cccc(OCC(O)CNC(=O)c2ccc(-c3cccc(F)c3)nc2)c1` (stereo not drawn) [Example 49, 6-(3-Fluorophenyl)-N-[2-hydroxy-3-(3-methoxyphenoxy)propyl] nicotinamide] it is 10.8 nM. `COc1ccc(OC)c(C(O)CNC(=O)c2ccc(-c3cccc(F)c3)nc2)c1` (stereo not drawn) [Example 50, N-[2-(2,5-Dimethoxyphenyl)-2-hydroxyethyl]-6-(3-fluorophenyl)nicotinamide]: the IC50 was determined as 8.14 nM. Regarding `O=C(NCC1CC2(CCN(Cc3cc[nH]n3)CC2)CO1)c1ccc(-c2cccc(F)c2)nc1` (stereo not drawn) [Example 51, 6-(3-Fluorophenyl)-N-{[8-(1H-pyrazol-3-ylmethyl)-2-oxa-8-azaspiro[4.5]dec-3-yl]methyl}nicotinamide], the IC50 was 25.4 nM. With `CN1CCC2(CC1)COC(CNC(=O)c1ccc(-c3cccc(F)c3)nc1)C2` (stereo not drawn) [Example 52, 6-(3-Fluorophenyl)-N-[(8-methyl-2-oxa-8-azaspiro[4.5]dec-3-yl)methyl]nicotinamide], the 50% inhibitory concentration (IC50) was 77.6 nM.

As to `O=C(NCC1CC2(CCN(Cc3ccccn3)CC2)CO1)c1ccc(-c2cccc(F)c2)nc1` (stereo not drawn) [Example 53, 6-(3-Fluorophenyl)-N-{[8-(pyridin-2-ylmethyl)-2-oxa-8-azaspiro[4.5]dec-3-yl]methyl}nicotinamide], the half-maximal inhibitory concentration (IC50) came out at 19.2 nM. Take `O=C(NCC1CC2(CCN(c3cnccn3)CC2)CO1)c1ccc(-c2cccc(F)c2)nc1` (stereo not drawn) [Example 54, 6-(3-Fluorophenyl)-N-[(8-pyrazin-2-yl-2-oxa-8-azaspiro[4.5]dec-3-yl)methyl]nicotinamide]: the IC50 was 13.5 nM.

As for `COc1ccc(C(Cc2cc(C)no2)NC(=O)c2ccc(-c3cccc(F)c3)nc2)cc1OC` (stereo not drawn) [Example 55, N-[1-(3,4-Dimethoxyphenyl)-2-(3-methylisoxazol-5-yl)ethyl]-6-(3-fluorophenyl)nicotinamide], the IC50 came out at 11.1 nM. On to `Cc1cnc(CN2C(=O)CCC2CCNC(=O)c2ccc(-c3cccc(F)c3)nc2)cn1` (stereo not drawn) [Example 56, 6-(3-Fluorophenyl)-N-(2-{1-[(5-methylpyrazin-2-yl)methyl]-5-oxopyrrolidin-2-yl}ethyl)nicotinamide], for which the IC50 is 19.8 nM.

Turning to `O=C(NCc1nnc(Cc2ccccc2)o1)c1ccc(-c2cccc(F)c2)nc1` [Example 57, N-[(5-Benzyl-1,3,4-oxadiazol-2-yl)methyl]-6-(3-fluorophenyl)nicotinamide], the IC50 was 32.8 nM.

Turning to `O=C(NCCC1CCC(=O)N1Cc1ccccc1)c1ccc(-c2cccc(F)c2)nc1` (stereo not drawn) [Example 58, N-[2-(1-Benzyl-5-oxopyrrolidin-2-yl)ethyl]-6-(3-fluorophenyl)nicotinamide], the IC50 is 9.46 nM.

For the molecule `O=C(NC(c1ccc(F)c(F)c1)c1nn[nH]n1)c1ccc(-c2cccc(F)c2)nc1` (stereo not drawn) [Example 59, N-[(3,4-Difluorophenyl)(2H-tetrazol-5-yl)methyl]-6-(3-fluorophenyl)nicotinamide], the 50% inhibitory concentration (IC50) is 10.6 nM. For `CCC(NC(=O)c1ccc(-c2cccc(F)c2)nc1)c1nn[nH]n1` (stereo not drawn) [Example 60, 6-(3-Fluorophenyl)-N-[1-(2H-tetrazol-5-yl)propyl]nicotinamide], the IC50 turned out to be 38.9 nM. For `CCc1csc(CNC(=O)c2ccc(-c3cccc(F)c3)nc2)n1` [Example 61, N-[(4-Ethyl-1,3-thiazol-2-yl)methyl]-6-(3-fluorophenyl)nicotinamide], the concentration for half-maximal inhibition (IC50) was 5.48 nM. On to `O=C(NC(CCc1ccccc1)c1nn[nH]n1)c1ccc(-c2cccc(F)c2)nc1` (stereo not drawn) [Example 62, 6-(3-Fluorophenyl)-N-[3-phenyl-1-(2H-tetrazol-5-yl)propyl]nicotinamide], for which the IC50 is 17.2 nM.

For `O=C(NC1CCCOC1)c1ccc(-c2cccc(F)c2)nc1` (stereo not drawn) [Example 63, 6-(3-Fluorophenyl)-N-(tetrahydro-2H-pyran-3-yl)nicotinamide], the IC50 came to 5.32 nM. As to `O=C(NCCNc1ncccn1)c1ccc(-c2cccc(F)c2)nc1` [Example 64, 6-(3-Fluorophenyl)-N-[2-(pyrimidin-2-ylamino)ethyl]nicotinamide], the IC50 turned out to be 12.9 nM. Consider `CC[C@H](CC#N)NC(=O)c1ccc(-c2cccc(F)c2)nc1` [Example 65, N-[(1R)-1-(Cyanomethyl)propyl]-6-(3-fluorophenyl)nicotinamide], for which the IC50 stood at 60.3 nM.

On to `COC(=O)CC[C@@H](NC(=O)c1ccc(-c2cccc(F)c2)nc1)C(=O)OC` [Example 66, Dimethyl N-{[6-(3-fluorophenyl)pyridin-3-yl]carbonyl}-D-glutamate], for which the IC50 was found to be 95.2 nM.

For `O=C(NCC1CN(Cc2ccccn2)C(=O)CO1)c1ccc(-c2cccc(F)c2)nc1` (stereo not drawn) [Example 67, 6-(3-Fluorophenyl)-N-{[5-oxo-4-(pyridin-2-ylmethyl)morpholin-2-yl]methyl}nicotinamide], the IC50 worked out at 31.9 nM. Take `CN(C)[C@@H]1COC[C@H]1NC(=O)c1ccc(-c2cccc(F)c2)nc1` [Example 68, N-[(3S,4S)-4-(Dimethylamino)tetrahydro-furan-3-yl]-6-(3-fluorophenyl)nicotinamide]: the half-maximal inhibitory concentration (IC50) is 75.8 nM. Turning to `Cc1nc(CNC(=O)c2ccc(-c3cccc(F)c3)nc2)cs1` [Example 69, 6-(3-Fluorophenyl)-N-[(2-methyl-1,3-thiazol-4-yl)methyl]nicotinamide], the IC50 worked out at 23.9 nM. On to `CCCCN1CC(CNC(=O)c2ccc(-c3cccc(F)c3)nc2)OCC1=O` (stereo not drawn) [Example 70, N-[(4-Butyl-5-oxomorpholin-2-yl)methyl]-6-(3-fluorophenyl)nicotinamide], for which the concentration for half-maximal inhibition (IC50) came out at 34.2 nM. `Cc1cnc(CN2CC(CNC(=O)c3ccc(-c4cccc(F)c4)nc3)OCC2=O)cn1` (stereo not drawn) [Example 71, 6-(3-Fluorophenyl)-N-({4-[(5-methylpyrazin-2-yl)methyl]-5-oxomorpholin-2-yl}methyl)nicotinamide]: the concentration for half-maximal inhibition (IC50) turned out to be 61.8 nM.
